Measured values reported in patent publication US6376710B2, “Amidine compounds and their use as pesticides” (Sumitomo Chemical Co., Ltd., priority 2000, dated 2002).
Where two headings read alike, the source gives them in different places.

Legend:
Assay type in all cases: in vivo
[1] = test system: German cockroach (Blattella germanica); assay: Test Example 2: treated filter paper with sucrose bait, German cockroach male adults, mortality; settings: 144 h
[2] = test system: house fly (Musca domeestica); assay: Test Example 3: treated filter paper with sucrose bait, house fly female adults, mortality; settings: 24 h
Method: On the bottom of a polyethylene cup of 5.5 cm in diameter was placed a filter paper of the same size, to which a water dilution (500 ppm) of each of the formulations obtained from present compounds 1, 2, 3, 4, 5, 6, 7, 8, 9, 10, 11, 12, 13, 14, 15, 16, 17, 18, 19, 20, 21, 25, 26, 27, 28, 29, 32, 33, 34, 35, 36, 37, 38, 39, 40, 41, 42, 43, 44, 45, 47, 51, 52, 53, 54, 55, 60, and 61 according to Formulation Example 1 was added dropwise in an amount of 0.7 ml, and the cup was uniformly charged with about 30 mg of sucrose as a bait. Ten female adults of house fly (Musca domeestica) were set free in each cup, which was then kept covered. After 1 day, their survival was examined to determine the mortality.

[3] = test system: common mosquito (Culex pipiens pallens); assay: Test Example 4: treated water, common mosquito final-instar larvae, mortality; settings: 192 h

NC(=Nc1c(Cl)cc(C(F)(F)F)cc1[N+](=O)[O-])C(F)(F)C(F)(F)C(F)(F)F [present compound 32, N-(2-Chloro-6-nitro-4-trifluoromethylphenyl)-2,2,3,3,4,4,4-heptafluorobutyramidine]
100%: mortality at 500 µg/mL ([1]; water dilution (500 ppm) of flowable (Formulation Example 1), 0.7 ml on filter paper, male adults, after 6 days, read-out: mortality) | mortality at 500 µg/mL ([2]; water dilution (500 ppm) of flowable (Formulation Example 1), 0.7 ml on filter paper, female adults, after 1 day, read-out: mortality) | mortality at 3.5 ppm ([3]; active ingredient 3.5 ppm in ion-exchanged water (0.7 ml of 500 ppm dilution), final-instar larvae, after 8 days, read-out: mortality)

N#Cc1cc(C(F)(F)F)cc(Cl)c1N=C(N)C(F)(F)C(F)(F)F [present compound 14, N-(2-Chloro-6-cyano-4-trifluoromethylphenyl)-2,2,3,3,3-pentafluoropropionamidine]
100%: mortality at 500 µg/mL [1] | mortality at 500 µg/mL [2] | mortality at 3.5 ppm [3]

NC(=Nc1c(Cl)cc(C(F)(F)F)cc1Cl)C(Cl)Cl [present compound 12, 2,2-Dichloro-N-(2,6-dichloro-4-trifluoromethylphenyl)acetamidine]
100%: mortality at 500 µg/mL [1] | mortality at 500 µg/mL [2] | mortality at 3.5 ppm [3]

CNC(=Nc1c(Cl)cc(C(F)(F)F)cc1Cl)C(F)(F)F [present compound 55, N′-(2,6-Dichloro-4-trifluoromethylphenyl)-2,2,2-trifluoro-N-methylacetamidine]
100%: mortality at 500 µg/mL [1] | mortality at 500 µg/mL [2] | mortality at 3.5 ppm [3]

NC(=Nc1c([N+](=O)[O-])cc(C(F)(F)F)cc1[N+](=O)[O-])C(F)(F)C(F)C(F)(F)F (stereo not drawn) [present compound 44, N-(2,6-Dinitro-4-trifluoromethylphenyl)-2,2,3,4,4,4-hexafluorobutyramidine]
100%: mortality at 500 µg/mL [1] | mortality at 500 µg/mL [2] | mortality at 3.5 ppm [3]

CSC(F)(F)C(N)=Nc1c([N+](=O)[O-])cc(C(F)(F)F)cc1[N+](=O)[O-] [present compound 51, N-(2,6-Dinitro-4-trifluoromethylphenyl)-2,2-difluoro-2-methylthioacetamidine]
100%: mortality at 500 µg/mL [1] | mortality at 500 µg/mL [2] | mortality at 3.5 ppm [3]

NC(=Nc1c(Cl)cc(C(F)(F)F)cc1Br)C(F)(F)C(F)(F)F [present compound 10, N-(2-Bromo-6-chloro-4-trifluoromethylphenyl)-2,2,3,3,3-pentafluoropropionamidine]
100%: mortality at 500 µg/mL [1] | mortality at 500 µg/mL [2] | mortality at 3.5 ppm [3]
